According to ChEMBL document CHEMBL1148105, “Bioactive metabolites from a marine-derived strain of the fungus Emericella variecolor” (2002):

Columns and labels:
Assay type in all cases: functional
Bacillus subtilis = assay: Antimicrobial activity against Bacillus subtilis
Staphylococcus aureus = assay: Antimicrobial activity against Staphylococcus aureus
Enterococcus faecalis = assay: Antimicrobial activity against Enterococcus faecalis
Escherichia coli = assay: Antimicrobial activity against Escherichia coli

Measured: MIC

C=C(C)[C@H]1COc2c(C)cc3oc4c(CC=C(C)C)ccc(O)c4c(=O)c3c2[C@@H]1O [SHAMIXANTHONE]
50 µg/mL: all assays above

C=C(C)[C@H]1COc2c(C)cc3oc4c(C[C@H](O)C(C)(C)O)ccc(O)c4c(=O)c3c2[C@@H]1O.O [TAJIXANTHONE HYDRATE]
50 µg/mL: all assays above
